Source: patent US4877778A, “Method of enhancing lipophile transport using cyclodextrin derivatives” (priority 1987, dated 1989)

Assays:
[1] = in vivo
Method: (§1) The infusion was therefore discontinued and 250 mL of fresh frozen plasma was administered over 3 hours.

[2] = tested on: patient with severe, chronic hypervitaminosis A; details: human, in vivo
Method: as §1

LDM [1]: 536 U/L
Serum pH and concentrations of glucose, protein, albumin, calcium, phosphate, and hepatic transaminases [1]: remained normal throughout the infusion
chloride [1]: 107 M EQ/L
sodium [1]: 138 M EQ/L
Substance: 2-hydroxypropyl-β-cyclodextrin
symptoms during infusion [2]: generalized irritability and pain in the legs and shins
